Assay type in all cases: cell-based
Assay [1] deals with T1, human LXRβ (Homo sapiens, UniProt P55055).
T1 construct: LXRβ (G199-E461); expressed in transfected cells; host or cells: HG5LN (HeLa cells carrying the (GAL4RE)5-βGlob-Luc-SVNeo reporter)
T1 sequence (P55055 198-460 limits assumed): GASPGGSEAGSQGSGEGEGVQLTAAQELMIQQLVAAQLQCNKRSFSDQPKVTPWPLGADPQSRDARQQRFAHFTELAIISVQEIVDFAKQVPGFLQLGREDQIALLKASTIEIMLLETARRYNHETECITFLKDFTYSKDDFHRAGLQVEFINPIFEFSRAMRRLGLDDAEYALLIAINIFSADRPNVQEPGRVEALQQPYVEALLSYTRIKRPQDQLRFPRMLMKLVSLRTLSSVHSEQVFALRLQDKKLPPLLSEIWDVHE
The assay is described as follows: HG5LN GAL4-LXRβ reporter cell line, agonist mode. The conditions noted are these: for LXRβ % max act: maximal luciferase activity at 10^-5 M (10^-6 M for * and 3 10^-6 M for ** compounds), 100% = 1 µM T0901317, DMSO 9 ± 2. From the text: (§1) To construct GAL4-NR chimeras, individual LBDs of human FXR (R193-Q486), LXRα (A187-E447), LXRβ (G199-E461), CAR (M76-S348), and RORγ (S97-K518) were amplified by PCR with primers containing XhoI and SacI restriction sites (FXR), XhoI and BamHI (LXRs, CAR, RORγ) and inserted in pSG5-GAL4(DBD)-puromycin plasmid. To construct GAL4-CAR (+ APYLT) (M76-S353), the five amino acids APYLT were inserted by overlap extension PCR between amino acids P270 and D271 of CAR.
(§2) To characterize the specificity of chemicals for human FXR, LXRα, LXRβ, CAR and RORγ, we established in a similar manner HG5LN FXR, LXRα, LXRβ, CAR WT, CAR (APYLT) and RORγ reporter cell lines. […] These cells were stably transfected by pSG5-GAL4 (DBD)-NRs (LBD)-puromycin plasmid and selected in presence of 0.5 µg/ml puromycin. […] From each HG5LN NR cells, 5 to 10 clones were chosen for their ligand inducibility of luciferase expression. […] The most inducible clones were expanded and rechecked for inducibility and aliquots were frozen at different passages. One clone per receptor was maintained in culture and used for ligand screening. HG5LN cells were cultured in Dulbecco’s modified Eagle’s medium (DMEM): Nutrient Mixture F-12 (DMEM/F-12) containing phenol red and 1 g/l glucose and supplemented with 5% fetal bovine serum, 100 units/ml of penicillin, 100 µg/ml of streptomycin and 1 mg/ml geneticin, in 5% CO2 humidified atmosphere at 37°C. Stably transfected cell lines derived from HG5LN cells were cultured in the same culture medium supplemented with 0.5 µg/ml puromycin.
(§3) Individual reporter cell lines were seeded at a density of 40,000 cells per well in 96-well white opaque tissue culture plates (Greiner CellStar) in Dulbecco’s Modified Eagle Medium: Nutrient Mixture F-12 (DMEM/F-12) without phenol red and 1 g/l glucose and supplemented with 5% stripped fetal bovine serum, 100 units/ml of penicillin, 100 µg/ml of streptomycin (test medium). Chemicals to be tested were added 24h later, and cells were incubated at 37°C for 16h. Experiments were performed in quadruplicates. At the end of the incubation period, culture medium was replaced with test medium containing 0.3 mM luciferin solution. Luciferase activity was measured for 2s in intact living cells after 10 min stabilization using a Micro Beta Wallac luminometer (PerkinElmer). EC50 values were calculated using GraphPad Prism (GraphPad Software Inc).
(§4) Chemicals tested for agonism on FXR, LXRs, CAR (+ APYLT), PXR, and antagonism on CAR and RORγ were tested alone, without addition of any other ligand.
(§5) In the transactivation assay, each compound was tested at various concentrations in three independent experiments at least. For each experiment, tests were performed in quadruplicates for each concentration, and data are expressed by means values with standard deviations. Individual agonist dose–response curves, in the absence and presence of antagonist, were fitted using the sigmoid dose-response function of a graphics and statistics software program (GraphPad Prism, version 5.0). EC50 (effective concentration for half-maximal luciferase activity) and IC50 (half-maximal inhibitory concentration) values were calculated from equations used to fit the data in this graphic software. Transactivation data are presented as EC50 and IC50 values for each compound tested. To analyze significances, we compared individual compound treatments with controls using one-way analysis of variance (ANOVA) with the help of GraphPad Prism software.

Assay [2] concerns the target T2, human FXR (Homo sapiens, UniProt Q96RI1).
T2 construct: FXR (R193-Q486); expressed in transfected cells; host or cells: HG5LN (HeLa cells carrying the (GAL4RE)5-βGlob-Luc-SVNeo reporter)
T2 sequence (Q96RI1 193-486): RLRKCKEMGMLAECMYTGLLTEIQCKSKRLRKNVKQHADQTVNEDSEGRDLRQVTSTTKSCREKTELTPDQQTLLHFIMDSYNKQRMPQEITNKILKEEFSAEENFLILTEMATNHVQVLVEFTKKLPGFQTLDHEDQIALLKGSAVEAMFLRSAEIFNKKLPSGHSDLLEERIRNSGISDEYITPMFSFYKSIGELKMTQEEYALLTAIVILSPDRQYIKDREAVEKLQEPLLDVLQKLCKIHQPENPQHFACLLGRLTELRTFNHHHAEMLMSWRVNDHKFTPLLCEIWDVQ
The assay is described as follows: HG5LN GAL4-FXR reporter cell line, antagonist mode in presence of GW4064. The conditions noted are these: for FXR (GW4064 100 nM) % min act: in presence of GW4064 100 nM (80% of maximal activity), at 10^-5 M (10^-6 M *, 3 10^-6 M **).
From the text: as §1, §2, §3, §4, §5

Assay [3] deals with T3, human LXRα (Homo sapiens, UniProt Q13133).
T3 construct: LXRα (A187-E447); expressed in transfected cells; host or cells: HG5LN (HeLa cells carrying the (GAL4RE)5-βGlob-Luc-SVNeo reporter)
T3 sequence (Q13133 187-447): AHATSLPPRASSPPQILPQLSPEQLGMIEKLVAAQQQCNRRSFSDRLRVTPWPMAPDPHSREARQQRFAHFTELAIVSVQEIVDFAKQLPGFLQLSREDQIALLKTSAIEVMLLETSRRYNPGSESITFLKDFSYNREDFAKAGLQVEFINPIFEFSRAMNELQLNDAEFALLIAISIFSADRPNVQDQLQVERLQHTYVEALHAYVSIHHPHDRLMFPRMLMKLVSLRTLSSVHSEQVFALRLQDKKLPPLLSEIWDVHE
The assay is described as follows: HG5LN GAL4-LXRα reporter cell line, antagonist mode in presence of T0901317. To be noted: for LXRα (T0901317 20 nM) % min act: in presence of T0901317 20 nM (80% of maximal activity), at 10^-5 M (10^-6 M *, 3 10^-6 M **).
From the text: as §1, §2, §3, §4, §5

Where [4] appears, read: HG5LN GAL4-LXRβ cells, tested alone, NE = No effect, read-out: LXRβ EC50.
The mark [5] stands for this setting: read-out: FXR (GW4064 100 nM) IC50, in presence of GW4064 100 nM, NE = No effect.
Setting [6] is: read-out: LXRα (T0901317 20 nM) IC50, in presence of T0901317 20 nM, NE = No effect.

Like-named read-outs stand apart in the source and are kept apart here.

In general, EC50 refers to the concentration that produces a half-maximal response. In general, IC50 refers to the concentration needed to halve the response being measured.

As to `CCOC(=O)Nc1ccc2c(c1)N(C(=O)CN(CC)CC)c1ccccc1CC2` [CINPA1], the EC50 in assay [1] (setting [4]) is > 10 µM. The IC50 in assay [2] (setting [5]) and in assay [3] (setting [6]) was > 10 µM throughout.
Regarding `Clc1ccc(-c2nc3sccn3c2/C=N/OCc2ccc(Cl)c(Cl)c2)cc1` [CITCO], the EC50 in assay [1] (setting [4]) is > 10 µM. Further, the IC50 in assay [2] (setting [5]) and in assay [3] (setting [6]) was > 10 µM each time.
Regarding `Clc1ccccc1C(c1ccccc1)(c1ccccc1)n1ccnc1` [Clotrimazole, clotrimazole], the EC50 in assay [1] (setting [4]) was > 10 µM. In assay [3] (setting [6]), the IC50 was > 10 µM.
`COc1cccc(Cn2cc(C(=O)Nc3ccc(C)c(S(=O)(=O)N4CCOCC4)c3)c(-c3ccc(C)cc3)n2)c1` [DY268]: the EC50 in assay [1] (setting [4]) is > 10 µM. The “FXR (GW4064 100 nM) % min act” value in assay [2] (NE = No effect) is listed as 14%. Besides, the IC50 in assay [2] (setting [5]) is 0.148 ± 0.068 µM; in assay [3] (setting [6]), > 10 µM.
For the compound `CC(C)(C)c1nc(-c2cccc(NS(=O)(=O)c3c(F)cccc3F)c2F)c(-c2ccnc(N)n2)s1` [Dabrafenib], the EC50 in assay [1] (setting [4]) is > 10 µM. Also, the IC50 in assay [2] (setting [5]) and in assay [3] (setting [6]) was > 10 µM throughout.
For `COC(=O)/C=C/c1cccc(N(Cc2ccc(-c3ccc(N(C)C)cc3)cc2)C(=O)C2CCCCC2)c1` [Feraxamine], the half-maximal effective concentration (EC50) in assay [1] (setting [4]) was > 10 µM. Also, the “FXR (GW4064 100 nM) % min act” value in assay [2] (NE = No effect) is listed as 33%. Further, the IC50 in assay [2] (setting [5]) is 0.687 ± 0.103 µM; in assay [3] (setting [6]) it was > 10 µM.
For `Cc1cc(C)c(S(=O)(=O)N(Cc2ccc(-c3cccc(S(C)(=O)=O)c3)cc2)Cc2ccc(C(F)(F)F)o2)c(C)c1` [GSK2033], the IC50 in assay [2] (setting [5]) is > 10 µM. The “LXRα (T0901317 20 nM) % min act” value in assay [3] (NE = No effect) came out at 2%.
Regarding `O=C(O)Cc1cccc(OCCCN(Cc2cccc(C(F)(F)F)c2Cl)CC(c2ccccc2)c2ccccc2)c1` [GW3965], the EC50 in assay [1] (setting [4]) was 0.015 ± 0.006 µM. Further, in assay [1] (from EC50 values on LXRα and LXRβ), the “LXRβ specificity (fold, over LXRα)” value turned out to be 12 fold. The “LXRβ % max act” value in assay [1] (NE = No effect) was found to be 100%. In addition, the IC50 in assay [2] stood at 5.8 ± 0.313 µM. The “FXR (GW4064 100 nM) % min act” value in assay [2] (NE = No effect) is recorded as 25%.
`CC(C)c1onc(-c2c(Cl)cccc2Cl)c1COc1ccc(/C=C/c2cccc(C(=O)O)c2)c(Cl)c1` [GW4064]: in assay [1] (setting [4]), the EC50 is > 10 µM. For the same compound, the IC50 in assay [3] (setting [6]) was > 10 µM.
In the case of `Cc1oc2ccccc2c1CNC(=O)NCc1cccs1` [S07662], the EC50 in assay [1] (setting [4]) is > 10 µM. Also, the IC50 in assay [2] (setting [5]) and in assay [3] (setting [6]) was > 10 µM each time.
`O=C(Nc1ccc(C(O)(C(F)(F)F)C(F)(F)F)cc1)c1ccccc1Cl` [SR0987]: the EC50 in assay [1] (setting [4]) is > 10 µM. The IC50 in assay [2] (setting [5]) and in assay [3] (setting [6]) was > 10 µM each time.
Turning to `CC(=O)Nc1nc(C)c(S(=O)(=O)Nc2ccc(C(O)(C(F)(F)F)C(F)(F)F)cc2)s1` [SR1001], the EC50 in assay [1] (setting [4]) is > 10 µM. The IC50 in assay [2] (setting [5]) and in assay [3] (setting [6]) was > 10 µM in each case.
Turning to `O=C(Nc1ccc(C(O)(C(F)(F)F)C(F)(F)F)cc1)c1ccc(C(F)(F)F)cc1` [SR1078], the EC50 in assay [1] (setting [4]) is > 10 µM. The IC50 in assay [2] (setting [5]) and in assay [3] (setting [6]) was > 10 µM in each case.
Consider `CCOC(=O)c1ccc(CN(Cc2ccc(-c3cccc(S(C)(=O)=O)c3)cc2)S(=O)(=O)c2c(C)cc(C)cc2C)o1` [SR9238], for which the IC50 in assay [2] (setting [5]) is > 10 µM; in assay [3], 0.026 ± 0.005 µM. For the same compound, the “LXRα (T0901317 20 nM) % min act” value in assay [3] (NE = No effect) is listed as 2%.
Taken in the same sequence, the figures for `Cc1cc(C)c(S(=O)(=O)N(CCc2cccc(Br)c2)Cc2ccc(-c3cccc(S(C)(=O)=O)c3)cc2)c(C)c1` [SR9243] were > 10 µM, 0.56 ± 0.099 µM and 2%.
Consider `CCOP(=O)(OCC)C(=Cc1cc(C(C)(C)C)c(O)c(C(C)(C)C)c1)P(=O)(OCC)OCC` [SR12813], for which, in assay [1] (setting [4]), the EC50 is > 10 µM. Besides, the IC50 in assay [2] (setting [5]) and in assay [3] (setting [6]) was > 10 µM each time.
`Fc1ccc(-c2c3cccc(C(F)(F)F)c3nn2Cc2ccc(F)cc2Cl)cc1` [WAY252623] returned an EC50 in assay [1] of 0.321 ± 0.071 µM. Also, the “LXRβ % max act” value in assay [1] (NE = No effect) was 72%. The IC50 in assay [2] (setting [5]) was > 10 µM.
For the compound SPA70, in assay [1] (setting [4]), the EC50 was > 10 µM. Besides, the half-inhibitory concentration (IC50) in assay [2] (setting [5]) and in assay [3] (setting [6]) was > 10 µM in each case.
